Experimental data reported in patent publication US20180353500A1, “ADMINISTRATION OF DEUTERATED CFTR POTENTIATORS” (Vertex Pharmaceuticals (Europe) Limited, priority 2015, published 2018).
Read-outs that look alike come from different tables or passages of the source.

Assay: Phase 1 single ascending dose (SAD) clinical trial: pharmacokinetics, safety and tolerability
Assay type: in vivo, human
Conditions: for AUC(0-inf): read-out: AUC0-inf, mean; for concentration at 24 h: read-out: C24 hr, mean
Protocol: Ten healthy male and female volunteers were enrolled in a single ascending dose study of 3 doses of CTP-656 (75, 150 and 300 mg), with a cross-over comparison of 150 mg CTP-656 and 150 mg Kalydeco® (the trade name of ivacaftor) (FIG. 5). Doses of CTP-656 were administered as an aqueous suspension, and Kalydeco was administered as a tablet. All doses of CTP-656 and Kalydeco were administered within 30 minutes after the start of a high-fat containing breakfast. There was a 7 day washout between doses. The objective of the study was to compare the pharmacokinetics of single ascending doses (75, 150, and 300 mg) of CTP-656, to compare the pharmacokinetics of a single dose of 150 mg CTP-656 and 150 mg Kalydeco and to assess the safety and tolerability of CTP-656.

[1] = both sexes, human, in vivo, 75 mg single oral dose, after high-fat breakfast
[2] = both sexes, human, in vivo, 150 mg single oral dose, after high-fat breakfast, CTP-656 aqueous suspension, Kalydeco tablet
[3] = both sexes, human, in vivo, 300 mg single oral dose, after high-fat breakfast
[4] = both sexes, human, plasma, 150 mg single oral dose, after high-fat breakfast, CTP-656 aqueous suspension, Kalydeco tablet

In the case of `[2H]C([2H])([2H])C(c1cc(C(C)(C)C)c(NC(=O)c2c[nH]c3ccccc3c2=O)cc1O)(C([2H])([2H])[2H])C([2H])([2H])[2H]` [CTP-656], the “CL/F, mean” value (75 mg single oral dose, after high-fat breakfast) is reported as 4.9 L/h, the “relationship between dose and exposure” value (75 mg, 150 mg and 300 mg, log-log regression analysis) is reported as “greater than dose proportional” and the “AUC0-inf relative to that of Kalydeco tablets” value (150 mg single oral dose each) is reported as about 3.5 fold. For the same compound, the “C24 hr relative to that of Kalydeco tablets” value (150 mg single oral dose each) was 4.2 fold, the “CL/F relative to that of Kalydeco” value (150 mg single oral dose each) was about 30% and the “Cmax relative to that of Kalydeco tablets” value (150 mg single oral dose each) was about 2 fold. For the same compound, the “Ratio of CTP-656 to Kalydeco, AUC0-24 hr” value (150 mg single oral dose each) was 2.8, the “Ratio of CTP-656 to Kalydeco, C12 hr” value (150 mg single oral dose each) was 3.2 and the “Ratio of CTP-656 to Kalydeco, C24 hr” value (150 mg single oral dose each) was 4.2. For the same compound, the “Ratio of CTP-656 to Kalydeco, Cmax” value (150 mg single oral dose each) was 2.0, the “Ratio of CTP-656 to Kalydeco, T1/2” value (150 mg single oral dose each) was 1.3 and the “CL/F, mean” value (150 mg single oral dose, after high-fat breakfast, CTP-656 aqueous suspension, Kalydeco tablet) was 3.8 L/h. For the same compound, the “CL/F, mean” value (300 mg single oral dose, after high-fat breakfast) was 3.2 L/h, the “differences in safety assessments between CTP-656 and Kalydeco” value (CTP-656 75, 150 or 300 mg vs Kalydeco 150 mg) was “no clinically significant differences” and the “pharmacokinetic profile compared to Kalydeco” value (Phase 1 cross-over comparison, 150 mg) was “superior pharmacokinetic profile”. For the same compound, the half-life (both sexes, human, in vivo, oral, 300 mg, across single doses of 75, 150 and 300 mg, read-out: apparent terminal half-life) was 14 to 17 h, the half-life (both sexes, human, in vivo, po, 75 mg, 75 mg single oral dose, after high-fat breakfast, read-out: T1/2, mean (converted)) was 14.1 h and the half-life (both sexes, human, in vivo, po, 150 mg, 150 mg single oral dose, after high-fat breakfast, CTP-656 aqueous suspension, Kalydeco tablet, read-out: T1/2, mean (converted)) was 15 h. It also gave a half-life (both sexes, human, in vivo, po, 300 mg, 300 mg single oral dose, after high-fat breakfast, read-out: T1/2, mean (converted)) of 17.3 h, a Cmax [1] of 838 ng/mL and a Tmax (both sexes, human, in vivo, 75 mg single oral dose, after high-fat breakfast, healthy volunteers, read-out: Tmax, median) of 5 h. The AUC(0-inf) [1] was 16600 ng·h/mL, the concentration at 24 h [1] was 270 ng/mL and the Cmax [2] was 2210 ng/mL. For the same compound, the AUC(0-inf) [2] was 44900 ng·h/mL, the concentration at 24 h [2] was 712 ng/mL and the Tmax (both sexes, human, in vivo, 150 mg single oral dose, after high-fat breakfast, CTP-656 aqueous suspension, Kalydeco tablet, read-out: Tmax, median) was 5 h. It also gave a Cmax [3] of 4970 ng/mL, an AUC(0-inf) [3] of 105000 ng·h/mL and a concentration at 24 h [3] of 1540 ng/mL. It also gave a Tmax (both sexes, human, in vivo, 300 mg single oral dose, after high-fat breakfast, read-out: Tmax, median) of 5 h, a half-life (both sexes, human, plasma, po, 150 mg, 150 mg single oral dose, after high-fat breakfast, CTP-656 aqueous suspension, Kalydeco tablet, read-out: T1/2, mean (converted)) of 15 h and a Cmax [4] of 2210 ng/mL. For the same compound, the concentration at 24 h [4] was 712 ng/mL, the AUC(0-t) (both sexes, human, plasma, 150 mg single oral dose, n = 9, read-out: AUC0-24 hr, mean) was 27300 ng·h/mL and the concentration at 12 h (both sexes, human, plasma, 150 mg single oral dose, n = 9, read-out: C12 hr, mean) was 1310 ng/mL. The Tmax (both sexes, human, plasma, 150 mg single oral dose, n = 9, read-out: Tmax, range) was 5 to 10 h and the tolerability (single oral doses following a high-fat meal, CTP-656 75, 150, 300 mg, Kalydeco 150 mg) was “generally well tolerated”.
